Assay results published in patent publication US9216106B2, “Device and method for the delivery of drugs for the treatment of posterior segment disease” (DIRECTCONTACT LLC, priority 2003, dated 2015).

What was measured:
[1] = Release of drug from hydrogel lens in contact with the cornea; type: in vivo; settings: after 2 hours of contact with the cornea; lens with about 700 ng beclomethasone or 450 ng prednisolone
Procedure: In some embodiments, such as with classes of corticosteroids, a single hydrogel contact lens may be loaded with about […] of active compound. For instance, experiments have shown that an effective concentration of beclomethasone can be delivered to the posterior segment by treating with a lens that includes about 700 ng of the compound. […] In each case, about 95% of the drug exited the lens after 2 hours of contact with the cornea. It is believed that the consistent pore size of the hydrogels provides for a consistent delivery rate of a variety of compounds.

[2] = rabbit, in vivo
Procedure: A series of experiments were designed to determine the efficacy of delivery to the posterior segment from a hydrogel positioned on the cornea.
In the first experiment, rabbits were treated by placing hydrogel lenses on the corneas of the animals for a period of 3 hours. Each lens was infused with about 450 ng of prednisolone incorporated therein. The lenses were placed onto the eyes of anesthetized animals (closed eye period) for the three hour period after which time the lenses were removed. The procedure was repeated about every other day or every three days until 5 applications had been completed.
After completion of the five applications, each eye of the animal was analyzed for prednisolone concentration using LC/MS/MS. The portion of the posterior segment that was analyzed included macula, retina, surrounding muscle, nerve and circulatory, including connective tissues and cells. Sample size typically was about 800 mg. […] The limit of quantification for prednisolone was 0.5 ng/mL and for prednisone was 0.05 ng/mL.

Compound	drug exited the lens [1]	average concentration in the posterior segment relative to the amount provided in the hydrogel lenses [2]
C[C@H]1C[C@H]2[C@@H]3CCC4=CC(=O)C=C[C@]4(C)[C@@]3(Cl)[C@@H](O)C[C@]2(C)[C@@]1(O)C(=O)CO [Beclomethasone, beclomethasone]	about 95%	–
C[C@]12C=CC(=O)C=C1CC[C@@H]1[C@@H]2[C@@H](O)C[C@@]2(C)[C@H]1CC[C@]2(O)C(=O)CO [Prednisolone, prednisolone]	about 95%	greater than 10%
